# Test results as given in patent publication US8309590B2, “Triazol compounds for treating biofilm formation” (Novartis AG, priority 2007, dated 2012).
# Experiments:
# P. aeruginosa = assay: planktonic growth in borosilicate glass tube model (OD 570 nm); assay type: cell-based, Pseudomonas aeruginosa
# Description: Growth with or without Compound I, e.g. at concentrations achieved in peripheral blood, under aerobic and anaerobic conditions with no added iron, 10, 30 and 50 μM iron. […] The effect of bacterial growth is determined using a standard method that involves inoculation of aliquots, e.g. 500 μL, of around 10^6 bacteria in minimal media with succinate into borosilicate glass tubes, e.g. 12×75 mm, that are them incubated under aerobic and anaerobic conditions, e.g. at 37° C. Each experiment is undertaken in triplicate and each borosilicate tube is removed at regular intervals, e.g. 0, 4, 8, 12, 16, 20 and 24 hours and the optical density at 570 nm of the culture used as an indicator of the level of growth. Anaerobic culture conditions are generated using the Anaerogen™ (Oxoid) system. For anaerobic experiments, parallel cultures are set up so that cultures are not transiently exposed to oxygen, i.e. seven parallel cultures to allow sampling at the required times. Different concentrations of Compound I are assessed for their effect on aerobic and anaerobic (A) growth and (B) biofilm levels. Medium used is MMS supplemented with 0 or 10 μM FeCl3, as indicated (37° C., 24 h). Values shown represent the mean±SD of one representative experiment with 3 tubes per experiment. Different concentrations of Compound I are assessed for their effect on aerobic and anaerobic (A) growth and (B) biofilm levels. Medium used is MMS supplemented with 10 μM FeCl3 (37° C., 24 h). […] The effects of Compound I on planktonic growth and biofilm development re assessed in the short-term borosilicate glass tube biofilm model. In this model, a biofilm is grown on a glass surface, and this is subsequently stained and solubilized. The optical density (OD: 570 nm) of the solution corresponds with the level of biofilm development. Using this model, bacterial growth and biofilm levels are determined after incubation (24 h, 37° C.) in minimal medium supplemented with succinate (MMS)+10 μM FeCl3 (aerobic and anaerobic atmospheres).
# [1] = tested on: exotoxin A (ETA) production by P. aeruginosa; assay: virulence factor production: exotoxin A; assay type: cell-based, Pseudomonas aeruginosa; details: Compound I 1339 μM, MMS + 10 μM FeCl3, anaerobic, 24 h
# [2] = tested on: phospholipase C production by P. aeruginosa; assay: virulence factor production: phospholipase C; assay type: cell-based, Pseudomonas aeruginosa; details: Compound I 1339 μM, MMS + 10 μM FeCl3, anaerobic, 24 h
# P. aeruginosa biofilm = assay: short-term borosilicate glass tube biofilm model (OD 570 nm); assay type: cell-based, Pseudomonas aeruginosa
# Description: For this purpose, two short-term biofilm models relevant for the early stages of biofilm formation are used: borosilicate tubes and cover-slip method. In both models, the biofilm growth is studied with or without Compound I under either aerobic or anaerobic conditions and with or without added iron, i.e. 0, 10, 30 and 50 μM iron. The anti-biofilm effects of Compound I are looked at according to the standard methods, i.e. optical density, confocal imaging software, […] program, to allow analysis of biofilm structure in a 3 dimensional perspective. The imaging system and use of BacLight LIVE/DEAD staining (Molecular Probes) in the cover-slip experiments allow to look at the effects on both bacterial microcolonies and biofilm structure. Different concentrations of Compound I are assessed for their effect on aerobic and anaerobic (A) growth and (B) biofilm levels. Medium used is MMS supplemented with 0 or 10 μM FeCl3, as indicated (37° C., 24 h). Values shown represent the mean±SD of one representative experiment with 3 tubes per experiment. Different concentrations of Compound I are assessed for their effect on aerobic and anaerobic (A) growth and (B) biofilm levels. Medium used is MMS supplemented with 10 μM FeCl3 (37° C., 24 h). […] The effect of Compound I (1339 μM) on biofilm development in different iron concentrations, without Compound I (black columns) and with Compound I, 1339 μM (grey columns). […] The effects of Compound I on planktonic growth and biofilm development re assessed in the short-term borosilicate glass tube biofilm model. In this model, a biofilm is grown on a glass surface, and this is subsequently stained and solubilized. The optical density (OD: 570 nm) of the solution corresponds with the level of biofilm development. Using this model, bacterial growth and biofilm levels are determined after incubation (24 h, 37° C.) in minimal medium supplemented with succinate (MMS)+10 μM FeCl3 (aerobic and anaerobic atmospheres). […] It is investigated whether Compound I is impairing anaerobic biofilm development by directly reducing the level of iron in the medium, or whether it is acting by an iron-independent mechanism. Compound I at a concentration of 1339 μM is tested to see if it continued to impair anaerobic biofilm development as the concentration of iron is increased in the culture medium.
# solubility in MMS medium = assay type: physicochemical; details: MMS medium (pH 7.0)
# [3] = tested on: P. aeruginosa strain PAO1; assay: MIC of tobramycin and colistin with and without Compound I; assay type: cell-based, Pseudomonas aeruginosa; details: Compound I 1339 μM, MMS + 10 μM FeCl3, aerobic and anaerobic atmospheres
# Description: The minimal inhibitory concentrations (MICs) of the aminoglycosides gentamycin and tobramycin are determined under aerobic and anaerobic conditions in the presence of no added iron or 30 μM iron, with or without Compound I, e.g. and/or with varying concentrations of Compound I). MICs are determined in MMS+10 μM FeCl3 supplemented with Compound I (1339 μM) (solid line) and without Compound I (dashed line). Values shown represent the mean±SD of a representative experiment with each condition tested in duplicate. The […] inhibitory concentrations (MICS) of two antibiotics commonly used antibiotics to treat CF individuals, tobramycin and colistin, are tested against P. aeruginosa. This is done in MMS+10 μM FeCl3 with and without Compound I (1339 μM) under aerobic and anaerobic atmospheres (FIG. 4).
# [4] = Compound I 0-100 μM, aerobic, MMS + 10 μM FeCl3, 24 h, 37° C.
# [5] = Compound I 0-100 μM, anaerobic, MMS + 10 μM FeCl3, 24 h, 37° C.
# [6] = higher concentration of Compound I (up to 6695 μM, via PEG 400), aerobic
# [7] = higher concentration of Compound I (up to 6695 μM, via PEG 400), anaerobic, P<0.05
compound,measurement,setting,value
"O=C(O)c1ccc(-n2nc(-c3ccccc3O)nc2-c2ccccc2O)cc1 [Compound I, 4-[3,5-Bis-(2-hydroxyphenyl)-[1,2,4]-triazol-1-yl]benzoic acid]",effect on aerobic growth,P. aeruginosa; [4],does not impair
same,effect on anaerobic growth,P. aeruginosa; [5],does not impair
same,"effect on growth, higher concentration, aerobic",P. aeruginosa; [6],not under aerobic conditions
same,"effect on growth, higher concentration, anaerobic",P. aeruginosa; [7],significantly impair
same,effect on iron-induced increase of exotoxin A (ETA) production,[1],increase is negated
same,effect on iron-induced increase of phospholipase C production,[2],increase is negated
same,effect on aerobic biofilm development,P. aeruginosa biofilm; [4],does not impair
same,effect on anaerobic biofilm development,P. aeruginosa biofilm; [5],does not impair
same,impairment of anaerobic biofilm development as iron concentration is increased,"P. aeruginosa biofilm; Compound I 1339 μM, anaerobic, increasing iron levels in culture medium",becomes less effective
same,"effect on biofilm levels, higher concentration, aerobic",P. aeruginosa biofilm; [6],not under aerobic conditions
same,"effect on biofilm levels, higher concentration, anaerobic",P. aeruginosa biofilm; [7],significantly impair
same,solubility in MMS medium,solubility in MMS medium,low solubility
same,effect on MIC of colistin,[3],does not alter the MIC
same,effect on MIC of tobramycin,[3],does not alter the MIC
